Measurements reported in patent publication US10392391B2 (Vertex Pharmaceuticals Incorporated, priority 2012, dated 2019).

The compounds below were run against ATR kinase (full-length ATR) (Homo sapiens (Human), UniProt Q13535) (assay: ATR inhibition assay (radioactive-phosphate incorporation)). Conditions: not given.
Sequence of ATR kinase (full-length ATR) (Q13535 whole entry): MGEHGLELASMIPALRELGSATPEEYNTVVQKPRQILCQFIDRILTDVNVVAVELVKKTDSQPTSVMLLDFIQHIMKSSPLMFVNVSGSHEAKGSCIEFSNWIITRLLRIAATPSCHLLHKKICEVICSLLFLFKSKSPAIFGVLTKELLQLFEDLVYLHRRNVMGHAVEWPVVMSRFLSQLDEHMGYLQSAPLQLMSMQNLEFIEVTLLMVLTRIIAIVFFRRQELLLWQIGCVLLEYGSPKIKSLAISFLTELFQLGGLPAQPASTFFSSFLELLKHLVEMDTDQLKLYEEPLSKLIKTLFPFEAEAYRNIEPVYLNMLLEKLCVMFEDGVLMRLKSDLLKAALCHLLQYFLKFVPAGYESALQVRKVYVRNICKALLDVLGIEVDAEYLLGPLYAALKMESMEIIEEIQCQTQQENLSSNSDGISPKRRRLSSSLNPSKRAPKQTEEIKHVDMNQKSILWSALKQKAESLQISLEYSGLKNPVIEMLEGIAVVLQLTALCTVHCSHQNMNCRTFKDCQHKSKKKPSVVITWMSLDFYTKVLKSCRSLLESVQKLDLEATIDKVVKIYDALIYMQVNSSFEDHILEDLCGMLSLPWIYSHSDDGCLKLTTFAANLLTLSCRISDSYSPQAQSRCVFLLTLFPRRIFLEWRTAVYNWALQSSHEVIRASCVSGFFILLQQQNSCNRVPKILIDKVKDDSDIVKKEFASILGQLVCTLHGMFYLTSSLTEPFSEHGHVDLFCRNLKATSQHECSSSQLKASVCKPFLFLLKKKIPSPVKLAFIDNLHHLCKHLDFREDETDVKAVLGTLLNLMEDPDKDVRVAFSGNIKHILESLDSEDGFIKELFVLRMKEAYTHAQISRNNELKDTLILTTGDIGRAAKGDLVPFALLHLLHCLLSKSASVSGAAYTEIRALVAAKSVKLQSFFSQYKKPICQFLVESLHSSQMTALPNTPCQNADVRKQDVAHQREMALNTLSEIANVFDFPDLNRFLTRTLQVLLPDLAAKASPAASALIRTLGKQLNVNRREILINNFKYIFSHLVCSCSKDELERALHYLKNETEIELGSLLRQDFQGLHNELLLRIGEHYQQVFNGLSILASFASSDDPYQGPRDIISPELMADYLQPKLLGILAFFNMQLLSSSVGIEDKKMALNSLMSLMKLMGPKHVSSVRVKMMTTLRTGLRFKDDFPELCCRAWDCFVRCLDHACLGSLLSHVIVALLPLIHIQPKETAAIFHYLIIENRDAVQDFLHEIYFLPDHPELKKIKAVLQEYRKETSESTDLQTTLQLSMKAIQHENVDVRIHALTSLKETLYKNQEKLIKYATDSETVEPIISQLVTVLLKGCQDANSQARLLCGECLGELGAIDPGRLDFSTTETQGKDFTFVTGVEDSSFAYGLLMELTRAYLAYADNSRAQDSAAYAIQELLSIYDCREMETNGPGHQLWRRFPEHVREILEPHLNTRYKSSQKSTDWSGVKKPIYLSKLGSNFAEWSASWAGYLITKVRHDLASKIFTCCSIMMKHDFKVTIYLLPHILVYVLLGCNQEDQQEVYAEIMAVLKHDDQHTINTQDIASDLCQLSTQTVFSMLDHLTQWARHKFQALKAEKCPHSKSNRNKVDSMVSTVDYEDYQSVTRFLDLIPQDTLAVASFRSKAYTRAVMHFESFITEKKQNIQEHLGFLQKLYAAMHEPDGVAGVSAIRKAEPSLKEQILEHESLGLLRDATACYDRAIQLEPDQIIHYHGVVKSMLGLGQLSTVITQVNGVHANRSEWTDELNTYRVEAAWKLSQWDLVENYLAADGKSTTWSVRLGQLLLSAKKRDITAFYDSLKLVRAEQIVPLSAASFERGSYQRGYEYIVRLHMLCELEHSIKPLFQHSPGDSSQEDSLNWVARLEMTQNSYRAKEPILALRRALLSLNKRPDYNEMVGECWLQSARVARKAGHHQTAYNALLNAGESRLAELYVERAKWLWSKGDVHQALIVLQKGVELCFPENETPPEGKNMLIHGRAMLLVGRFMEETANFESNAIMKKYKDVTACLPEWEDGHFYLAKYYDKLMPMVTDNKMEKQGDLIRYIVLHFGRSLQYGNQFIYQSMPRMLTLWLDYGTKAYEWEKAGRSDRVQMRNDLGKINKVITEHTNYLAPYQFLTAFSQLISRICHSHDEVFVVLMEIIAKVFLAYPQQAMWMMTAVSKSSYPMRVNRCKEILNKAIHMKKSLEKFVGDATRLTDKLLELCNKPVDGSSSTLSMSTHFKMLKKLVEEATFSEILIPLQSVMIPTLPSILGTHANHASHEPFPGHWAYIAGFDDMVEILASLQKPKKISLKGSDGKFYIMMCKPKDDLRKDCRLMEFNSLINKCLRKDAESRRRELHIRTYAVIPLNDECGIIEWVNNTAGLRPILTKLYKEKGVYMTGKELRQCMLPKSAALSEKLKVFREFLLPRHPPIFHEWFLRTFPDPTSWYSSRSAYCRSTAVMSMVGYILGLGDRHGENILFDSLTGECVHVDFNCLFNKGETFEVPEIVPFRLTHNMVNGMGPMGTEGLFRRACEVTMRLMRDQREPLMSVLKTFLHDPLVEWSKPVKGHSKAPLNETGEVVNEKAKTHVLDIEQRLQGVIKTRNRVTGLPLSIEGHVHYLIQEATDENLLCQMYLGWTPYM
Assay type: biochemical
Method in brief: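 Radiometric 33P incorporation by 5 nM full-length ATR into 800 μM target peptide with 10 μM [γ-33P]ATP, in 50 mM Tris/HCl pH 7.5, 10 mM MgCl2, 1 mM DTT, 7% DMSO, 25° C. Compound pre-incubated 10 minutes; reaction stopped after 24 hours, captured on phosphocellulose. Ki(app) from non-linear regression of initial rates.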
In the case of `CN(C)CC1(O)CCN(c2ccncc2NC(=O)c2c(N)nn3cc(Cl)cnc23)CC1` [I-N-36, 2-amino-6-chloro-N-(4-(4-((dimethylamino)methyl)-4-hydroxypiperidin-1-yl)pyridin-3-yl)pyrazolo[1,5-a]pyrimidine-3-carboxamide], the Ki is reported as 1 to 5 µM. For `Nc1nn2cc(F)cnc2c1C(=O)Nc1cnccc1N1CCN(C2COC2)C2CC21` (stereo not shown) [I-N-112, 2-amino-6-fluoro-N-(4-(5-(oxetan-3-yl)-2,5-diazabicyclo[4.1.0]heptan-2-yl)pyridin-3-yl)pyrazolo[1,5-a]pyrimidine-3-carboxamide], the Ki was 1 to 5 µM.

Same assay, conditions: Ki(app), 5 nM full-length ATR, 10 μM ATP, 25° C.
For `Nc1nn2cc(F)cnc2c1C(=O)Nc1cncc(F)c1N1CCC(C(=O)NC2COC2)CC1` [I-G-37, 2-amino-6-fluoro-N-(5-fluoro-4-(4-(oxetan-3-ylcarbamoyl)piperidin-1-yl)pyridin-3-yl)pyrazolo[1,5-a]pyrimidine-3-carboxamide], the Ki was 0.01 to 1 µM. `CC1CN(C)CCN1c1ccncc1NC(=O)c1c(N)nn2cc(Cl)cnc12` (stereo not shown) [I-N-72, 2-amino-6-chloro-N-(4-(2,4-dimethylpiperazin-1-yl)pyridin-3-yl)pyrazolo[1,5-a]pyrimidine-3-carboxamide] gave a Ki of 0.01 to 1 µM. With `Cc1nc(F)ccc1-c1ccncc1NC(=O)c1c(N)nn2cc(F)cnc12` [I-C-34, 2-amino-6-fluoro-N-(6-fluoro-2-methyl-[3,4′-bipyridin]-3′-yl)pyrazolo[1,5-a]pyrimidine-3-carboxamide] the Ki was 0.01 to 1 µM. `CN1CCC(C(=O)N2CCN(c3c(F)cncc3NC(=O)c3c(N)nn4cc(F)cnc34)CC2)C1` (stereo not shown) [I-N-156, 2-amino-6-fluoro-N-(5-fluoro-4-(4-(1-methylpyrrolidine-3-carbonyl)piperazin-1-yl)pyridin-3-yl)pyrazolo[1,5-a]pyrimidine-3-carboxamide] gave a Ki of 0.01 to 1 µM. `Nc1nn2cc(F)cnc2c1C(=O)Nc1cnccc1N1CCN2CCOC[C@H]2C1` [I-N-116, (R)-2-amino-6-fluoro-N-(4-(hexahydropyrazino[2,1-c][1,4]oxazin-8(1H)-yl)pyridin-3-yl)pyrazolo[1,5-a]pyrimidine-3-carboxamide] gave a Ki of 0.01 to 1 µM. `Nc1nn2cc(F)cnc2c1C(=O)Nc1cncc(F)c1N1CCN2C(=O)CC[C@@H]2C1` [I-N-182, (R)-2-amino-6-fluoro-N-(5-fluoro-4-(6-oxohexahydropyrrolo[1,2-a]pyrazin-2(1H)-yl)pyridin-3-yl)pyrazolo[1,5-a]pyrimidine-3-carboxamide] showed a Ki of 0.01 to 1 µM. `CN1CCN(c2ccc(-c3ccncc3NC(=O)c3c(N)nn4cc(F)cnc34)cn2)CC1` [I-C-21, 2-amino-6-fluoro-N-(6-(4-methylpiperazin-1-yl)-[3,4′-bipyridin]-3′-yl)pyrazolo[1,5-a]pyrimidine-3-carboxamide] gave a Ki of 0.01 to 1 µM. `CCN1CCC(C(=O)N2CCN(c3c(F)cncc3NC(=O)c3c(N)nn4cc(F)cnc34)CC2)C1` (stereo not shown) [I-N-207, 2-amino-N-(4-(4-(1-ethylpyrrolidine-3-carbonyl)piperazin-1-yl)-5-fluoropyridin-3-yl)-6-fluoropyrazolo[1,5-a]pyrimidine-3-carboxamide] was tested, and the Ki was 0.01 to 1 µM. `Nc1nn2cc(F)cnc2c1C(=O)Nc1cncc(Cl)c1N1CCC(C(=O)N2CCN3CCC2C3)CC1` (stereo not shown) [I-G-69, N-(4-(4-(1,4-diazabicyclo[3.2.1]octane-4-carbonyl)piperidin-1-yl)-5-chloropyridin-3-yl)-2-amino-6-fluoropyrazolo[1,5-a]pyrimidine-3-carboxamide] showed a Ki of 0.01 to 1 µM. In the case of `Nc1nn2cc(F)cnc2c1C(=O)Nc1cnccc1C1CCOC1` (stereo not shown) [I-C-75, 2-amino-6-fluoro-N-(4-(tetrahydrofuran-3-yl)pyridin-3-yl)pyrazolo[1,5-a]pyrimidine-3-carboxamide], the Ki is reported as 0.01 to 1 µM. In the case of `CN1CCN(c2c(F)cncc2NC(=O)c2c(N)nn3cc(CC#N)cnc23)CC1` [I-N-80, 2-amino-6-(cyanomethyl)-N-(5-fluoro-4-(4-methylpiperazin-1-yl)pyridin-3-yl)pyrazolo[1,5-a]pyrimidine-3-carboxamide], the Ki is reported as 0.01 to 1 µM. `N#CCc1cnc2c(C(=O)Nc3cnccc3O[C@@H]3CCOC3)c(N)nn2c1` [I-O-31, (R)-2-amino-6-(cyanomethyl)-N-(4-((tetrahydrofuran-3-yl)oxy)pyridin-3-yl)pyrazolo[1,5-a]pyrimidine-3-carboxamide] was tested, and the Ki was < 0.01 µM. `Nc1nn2cc(F)cnc2c1C(=O)Nc1cncc(F)c1N1CCC(C(=O)N2CC3CCC(C2)N3)CC1` [I-G-44, N-(4-(4-(3,8-diazabicyclo[3.2.1]octane-3-carbonyl)piperidin-1-yl)-5-fluoropyridin-3-yl)-2-amino-6-fluoropyrazolo[1,5-a]pyrimidine-3-carboxamide] gave a Ki of 0.01 to 1 µM. In the case of `CNC1CCN(c2ccncc2NC(=O)c2c(N)nn3cc(Cl)cnc23)CC1` [I-N-87, 2-amino-6-chloro-N-(4-(4-(methylamino)piperidin-1-yl)pyridin-3-yl)pyrazolo[1,5-a]pyrimidine-3-carboxamide], the Ki is reported as 0.01 to 1 µM. For `COC(=O)[C@H]1CC[C@@H](Oc2ccncc2NC(=O)c2c(N)nn3cc(F)cnc23)CC1` [I-O-18, (1s,4s)-methyl 4-((3-(2-amino-6-fluoropyrazolo[1,5-a]pyrimidine-3-carboxamido)pyridin-4-yl)oxy)cyclohexanecarboxylate], the Ki was 0.01 to 1 µM. Work on `Nc1nn2cc(F)cnc2c1C(=O)Nc1cnccc1O[C@H]1Cc2nccn2C1` [I-O-16, (S)-2-amino-N-(4-((6,7-dihydro-5H-pyrrolo[1,2-a]imidazol-6-yl)oxy)pyridin-3-yl)-6-fluoropyrazolo[1,5-a]pyrimidine-3-carboxamide] yielded a Ki of 0.01 to 1 µM. Compound `Nc1nn2cc(F)cnc2c1C(=O)Nc1cnccc1C1CCN(S(=O)(=O)C2CC2)CC1` [I-C-47, 2-amino-N-(4-(1-(cyclopropylsulfonyl)piperidin-4-yl)pyridin-3-yl)-6-fluoropyrazolo[1,5-a]pyrimidine-3-carboxamide] has a Ki of 0.01 to 1 µM. Work on `Nc1nn2cc(Cl)cnc2c1C(=O)Nc1cnccc1OC1CCCNC1` (stereo not shown) [I-O-75, 2-amino-6-chloro-N-(4-(piperidin-3-yloxy)pyridin-3-yl)pyrazolo[1,5-a]pyrimidine-3-carboxamide] yielded a Ki of 0.01 to 1 µM. With `CN1CC2(CCN(c3c(F)cncc3NC(=O)c3c(N)nn4cc(F)cnc34)CC2)OC1=O` [I-N-229, 2-amino-6-fluoro-N-(5-fluoro-4-(3-methyl-2-oxo-1-oxa-3,8-diazaspiro[4.5]decan-8-yl)pyridin-3-yl)pyrazolo[1,5-a]pyrimidine-3-carboxamide] the Ki was 0.01 to 1 µM. Work on `CC1(C)CCCN1c1ccncc1NC(=O)c1c(N)nn2cc(F)cnc12` [I-N-220, 2-amino-N-(4-(2,2-dimethylpyrrolidin-1-yl)pyridin-3-yl)-6-fluoropyrazolo[1,5-a]pyrimidine-3-carboxamide] yielded a Ki of 0.01 to 1 µM. With `Nc1nn2cc(Cl)cnc2c1C(=O)Nc1cnccc1OC1CCCOC1` (stereo not shown) [I-O-65, 2-amino-6-chloro-N-(4-((tetrahydro-2H-pyran-3-yl)oxy)pyridin-3-yl)pyrazolo[1,5-a]pyrimidine-3-carboxamide] the Ki was 0.01 to 1 µM. `CN(C)C1CN(C(=O)C2CCN(c3c(F)cncc3NC(=O)c3c(N)nn4cc(F)cnc34)CC2)C1` [I-G-22, 2-amino-N-(4-(4-(3-(dimethylamino)azetidine-1-carbonyl)piperidin-1-yl)-5-fluoropyridin-3-yl)-6-fluoropyrazolo[1,5-a]pyrimidine-3-carboxamide] was tested, and the Ki was 0.01 to 1 µM. Compound `CC(C#N)c1cnc2c(C(=O)Nc3cncc(F)c3N3CCN(C4COC4)CC3)c(N)nn2c1` (stereo not shown) [I-N-145] has a Ki of 0.01 to 1 µM.
